Laboratory results: patent US10751351B2, “Medicament for treatment of diabetic foot infections” (Debiopharm International S.A., priority 2016, dated 2020)
Converted amounts (≈) assume the structure as drawn. Like-named read-outs stand apart in the source and are kept apart here. Marks after values point to notes of the source that are not given here.

Columns and labels:
MRSA clinical strain [1] = assay type: in vivo, rabbit; conditions: 4 days of treatment; for bacterial counts in BM and bone, result in words: versus vehicle; for Mean ± SD Δlog10 CFU/g of tissue (day 3-day 7), Bone marrow / Mean ± SD Δlog10 CFU/g of tissue (day 3-day 7), Epiphyseal bone: Compound A 12.5 mg/kg BID iv, vancomycin 100 mg/kg once daily constant iv infusion
Experimental: (§1) MIC assays were performed by broth microdilution using CLSI guidelines. Osteomyelitis (OM) was induced in rabbit through inoculation of the knee with 10^8 CFU of an MRSA clinical strain after bone trepanation. On day 3 post-inoculation, surgical debridement was performed to mimic the clinical procedure. Samples of femoral red bone marrow (BM) and epiphyseal spongy bone were removed and bacterial counts were determined.
On day 7 post-inoculation, the bacterial counts were determined in BM and bone samples. The treatment efficacy was assessed by comparing the bacterial counts before (day 3 after infection) and after (day 7 after infection) the antibacterial therapy. Infected and non-infected BM, bone and plasma samples were collected for quantification of Compound B by LC-MS/MS.

[2] = test system: Panton-Valentine leukocidin (PVL)-positive MRSA strain; test: Staphylococcus aureus-induced acute osteomyelitis in a rat model; assay type: in vivo; conditions: for mean reduction in bacterial burden compared to vehicle controls: after 3 weeks of treatment; for mean reduction in bacterial burden compared to vehicle controls / Bone cultures found negative (rats): Compound A 100 mg/kg po BID, vancomycin 100 mg/kg ip QD, fosfomycin 75 mg/kg ip QD; for Bone cultures found negative (rats): day 28, after 3 weeks of treatment
Experimental: (§2) Minimum inhibitory concentration (MIC) assays were performed by broth microdilution using CLSI guidelines against 20 MRSA strains isolated from bone infections. Experimental osteomyelitis was induced through inoculation of the tibial medullary cavity with 7 log10 colony-forming unit (CFU) of a Panton-Valentine leukocidin (PVL)-positive MRSA strain on day 1. Animals were randomly assigned to the following treatment groups: Compound A 100 mg/kg po BID, vancomycin 100 mg/kg ip QD, fosfomycin 75 mg/kg ip QD and vehicle po BID for 3 weeks starting on day 8 post infection (n=6/group). CFU were enumerated in bone homogenates prior to treatment on day 8 in control animals and at the end of treatment period on day 28. Infected and non-infected bone and plasma samples were collected for quantification of Compound B by LC-MS/MS.

MRSA clinical strain [3] = test: Staphylococcus aureus-induced acute osteomyelitis in a rabbit model (2), dose range; assay type: in vivo
Experimental: (§3) MIC assays were performed by broth microdilution using CLSI guidelines. OM was induced in rabbit through inoculation of the knee with 10^8 CFU/mL of a MRSA clinical strain after bone trepanation. On day 3 post-inoculation, surgical debridement was performed to mimic the clinical procedure. Samples of femoral red bone marrow (BM) and epiphyseal spongy bone were removed and bacterial counts corresponding to day 3 after infection were determined. Treatments were started after 3 days of infection and lasted for 4 days with compound A at the dose level of 12.5, 6.25, 1.6, 0.4 or 0.1 mg/kg BID iv (4 h infusion) or its vehicle BID iv. On day 7 post-inoculation, the bacterial counts were determined in BM and bone samples. The treatment efficacy was assessed by comparing the bacterial counts before (day 3 after infection) and after (day 7 after infection) the antibacterial therapy.

MRSA clinical strain [4] = test: MIC by broth microdilution against the MRSA isolate (Example 5); assay type: cell-based; conditions: Staphylococcus aureus, Example 5 isolate
Experimental: as §3

[5] = test system: rabbit saphenous vein rings; test: In vitro vascular relaxation test in rabbit saphenous vein rings pre-contracted with noradrenaline; assay type: cell-based; conditions: for EC50: Oryctolagus cuniculus, saphenous vein rings pre-contracted with 1 μM noradrenaline, read-out: pD2 value (−log EC50) (converted); for relaxation of 1 μM noradrenaline pre-contracted preparations: DMSO-treated group −29±11%
Experimental: The vascular relaxing effects of Compound B were evaluated using isolated rabbit saphenous venous tissue. Rabbits were sacrificed by a blow to the head followed by a cervical dislocation and exsanguination. A segment of the saphenous vein was carefully excised. Vein was cleaned of all fat and connective tissue and cut into 2.5 mm long rings. The rings were then mounted horizontally in 20-ml organ baths filled with Krebs's solution maintained at 37.7±0.5° C. and gassed with a mixture of 95% O2 and 5% CO2. Krebs's solution was made up as follows (mM): NaCl: 118.0/KCl: 5.0/CaCl2): 2.6/MgSO4 (7H2O): 1.2/NaHCO3: 24.9/KH2PO4: 1.2/glucose: 10.0. pH is 7.40±0.05. The rings were allowed to equilibrate for 60 minutes at an optimal resting tension of 1 g. Contractile tensions were measured using an isometric force transducer and signals were analyzed using a specialized software (IOX version 1.554, EMKA Technologies, Paris, France). Tissue viability was verified using three challenges to 80 mM KCl. The maximal contraction was reached after 3 challenges of KCl. Endothelium integrity was verified on the basis of the relaxation produced by 1 μM acetylcholine in rings precontracted with 1 μM noradrenaline. All experiments were performed on […] rings with endothelium. The method evaluated the effect of the test substance in pre-contracted preparations. The preparations were pre-contracted with an agonist (Noradrenaline at 1 μM) until a stable tonic contraction was reached. Six cumulative concentrations of the test or comparison substances were then added into the bath and relaxations were recorded to plot a concentration-response curve. Three preparations were exposed to DMSO, 0.1% over 6 consecutive periods for comparison to Compound B and cilostazol. Four preparations (obtained from 4 animals) were studied for the test and comparison substances. Three preparations were studied for the DMSO-treated group. The relaxation response to test substance was expressed as the percentage of inhibition of agonist-induced pre-contraction. The concentration of agonist inducing 50% of the maximum response (EC50) was determined from each individual concentration-response curve using linear regression. For each ring, the agonist potency (pD2) was calculated as −log (EC50).

human PDE3A = human PDE3A (Homo sapiens, UniProt Q14432); test: PDE3 inhibition assay, Caliper mobility shift (PDE3A); assay type: biochemical; conditions: iFL-cAMP substrate, read-out: absolute IC50 PDE3A
human PDE3A, sequence (Q14432 whole entry): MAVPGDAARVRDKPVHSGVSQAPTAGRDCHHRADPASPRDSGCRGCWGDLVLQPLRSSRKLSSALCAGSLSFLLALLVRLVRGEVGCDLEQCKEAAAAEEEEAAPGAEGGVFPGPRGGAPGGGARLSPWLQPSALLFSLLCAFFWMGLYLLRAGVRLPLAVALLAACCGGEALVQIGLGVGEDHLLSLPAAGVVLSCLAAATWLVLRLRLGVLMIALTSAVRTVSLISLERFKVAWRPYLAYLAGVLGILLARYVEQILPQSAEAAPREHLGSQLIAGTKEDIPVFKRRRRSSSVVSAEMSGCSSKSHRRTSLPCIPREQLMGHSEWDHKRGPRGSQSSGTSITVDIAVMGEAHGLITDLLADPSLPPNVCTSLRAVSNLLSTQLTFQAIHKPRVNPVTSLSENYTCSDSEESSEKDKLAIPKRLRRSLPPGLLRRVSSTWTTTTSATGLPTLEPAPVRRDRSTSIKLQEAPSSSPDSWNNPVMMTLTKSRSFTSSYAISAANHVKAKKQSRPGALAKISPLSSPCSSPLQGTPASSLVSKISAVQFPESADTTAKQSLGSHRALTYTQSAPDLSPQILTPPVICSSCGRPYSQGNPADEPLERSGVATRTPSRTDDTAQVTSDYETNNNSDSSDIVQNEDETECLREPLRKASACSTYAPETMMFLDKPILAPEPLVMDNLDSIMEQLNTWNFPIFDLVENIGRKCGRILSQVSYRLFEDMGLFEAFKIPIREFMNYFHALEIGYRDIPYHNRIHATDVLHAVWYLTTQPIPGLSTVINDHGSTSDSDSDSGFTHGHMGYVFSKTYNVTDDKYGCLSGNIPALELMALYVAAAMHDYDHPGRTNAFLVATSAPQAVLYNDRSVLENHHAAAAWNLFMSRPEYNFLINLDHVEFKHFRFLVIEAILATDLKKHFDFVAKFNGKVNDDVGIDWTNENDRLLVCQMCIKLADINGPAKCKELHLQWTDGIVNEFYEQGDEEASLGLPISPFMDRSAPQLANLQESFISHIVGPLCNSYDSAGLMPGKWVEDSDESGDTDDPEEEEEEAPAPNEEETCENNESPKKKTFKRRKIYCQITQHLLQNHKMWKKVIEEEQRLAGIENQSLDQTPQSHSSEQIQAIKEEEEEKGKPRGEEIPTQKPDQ
Experimental: (§4) The inhibitory activity of Compound B was assessed against human PDE3A and PDE3B and was compared to cilostazol (a PDE3 inhibitor) in the enzymatic phosphodiesterase assay using Caliper mobility shift assay (2. Card A1, Caldwell C, Min H et al: High-throughput biochemical kinase selectivity assays: panel development and screening applications. J Biomol Screen. (2009); 14(1):31-42.). This method is based on change in charge and electrophoretic separation of product from fluorescently labeled substrate iFL-cAMP. Assays were performed in a 26 μL volume in a 384 well plate. iFL-cAMP substrate was incubated, off-chip, in reaction buffer (100 mM HEPES (pH 7.5), 5 mM MgCl2 and 0.002% Brij35) in the presence of active enzymes (PDE3A and PDE3B) and test compounds at various concentrations. After incubation period, the reaction products and remaining substrate were measured. Detection was performed using EZ reader II. The concentration of compound inducing 50% of the response (IC50) was determined from each individual concentration-response curve using variable slope fits with Prism software (Graph Pad, San Diego, Calif., USA).

[6] = Bone and plasma quantification of Compound B by LC-MS/MS in rat osteomyelitis model; conditions: in vivo, Compound A 100 mg/kg po BID, no difference between infected and non-infected tibias, read-out: bone:plasma ratio of Compound B
Experimental: as §2

human PDE3B = human PDE3B (Homo sapiens, UniProt Q13370); test: PDE3 inhibition assay, Caliper mobility shift (PDE3B); assay type: biochemical; conditions: iFL-cAMP substrate, read-out: absolute IC50 PDE3B
human PDE3B, sequence (Q13370 whole entry): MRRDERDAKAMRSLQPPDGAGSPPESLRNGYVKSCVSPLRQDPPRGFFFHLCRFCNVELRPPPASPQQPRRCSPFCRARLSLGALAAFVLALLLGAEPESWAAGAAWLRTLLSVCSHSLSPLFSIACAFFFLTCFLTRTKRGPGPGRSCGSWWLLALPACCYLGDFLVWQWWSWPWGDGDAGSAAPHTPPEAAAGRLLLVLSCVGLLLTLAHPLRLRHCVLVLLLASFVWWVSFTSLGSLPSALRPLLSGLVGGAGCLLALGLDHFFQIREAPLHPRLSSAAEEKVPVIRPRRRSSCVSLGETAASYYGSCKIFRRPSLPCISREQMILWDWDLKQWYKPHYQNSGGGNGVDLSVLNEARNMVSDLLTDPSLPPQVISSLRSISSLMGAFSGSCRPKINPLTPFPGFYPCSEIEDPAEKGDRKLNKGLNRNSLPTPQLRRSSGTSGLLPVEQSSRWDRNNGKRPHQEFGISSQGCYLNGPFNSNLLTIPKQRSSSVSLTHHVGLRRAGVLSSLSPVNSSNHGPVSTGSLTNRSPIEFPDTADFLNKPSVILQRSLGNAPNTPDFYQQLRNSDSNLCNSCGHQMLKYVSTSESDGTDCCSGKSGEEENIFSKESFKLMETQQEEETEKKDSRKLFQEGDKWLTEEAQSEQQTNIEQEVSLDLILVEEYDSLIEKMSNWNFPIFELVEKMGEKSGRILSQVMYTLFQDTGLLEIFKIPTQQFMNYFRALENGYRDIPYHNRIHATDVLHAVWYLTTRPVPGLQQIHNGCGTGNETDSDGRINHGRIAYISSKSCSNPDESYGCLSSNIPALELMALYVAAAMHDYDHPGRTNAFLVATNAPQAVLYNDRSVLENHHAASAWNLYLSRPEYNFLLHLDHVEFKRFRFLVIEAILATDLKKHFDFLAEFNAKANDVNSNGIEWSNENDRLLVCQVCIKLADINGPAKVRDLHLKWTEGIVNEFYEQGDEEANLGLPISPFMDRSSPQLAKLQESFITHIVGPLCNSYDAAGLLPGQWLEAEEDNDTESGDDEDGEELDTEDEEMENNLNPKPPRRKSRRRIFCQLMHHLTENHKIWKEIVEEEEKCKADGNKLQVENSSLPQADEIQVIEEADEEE
Experimental: as §4

MRSA clinical strain [7] = test: MIC by broth microdilution against the MRSA isolate (Example 4); assay type: cell-based; conditions: Staphylococcus aureus, read-out: MIC for the MRSA isolate
Experimental: as §1

[8] = 0.1 mg/kg BID iv, 4 days of treatment, 1 animal
[9] = 0.4 mg/kg BID iv, 4 days of treatment
[10] = 1.6 mg/kg BID iv, 4 days of treatment
[11] = 6.25 mg/kg BID iv, 4 days of treatment
[12] = 12.5 mg/kg BID iv, 4 days of treatment

Cc1c(CN(C)C(=O)/C=C/c2cnc3c(c2)CCC(=O)N3COP(=O)(O)O)oc2ccccc12 [Compound A, {6-[(1E)-3-{methyl[(3-methyl-1-benzofuran-2-yl)methyl]amino}-3-oxoprop-1-en-1-yl]-2-oxo-3,4-dihydro-1,8-naphthyridin-1(2H)-yl}methyl dihydrogen phosphate]
bacterial counts in BM and bone, result in words (MRSA clinical strain [1]): significant anti-staphylococcal activity
Mean ± SD Δlog10 CFU/g of tissue (day 3-day 7), Bone marrow (MRSA clinical strain [1]): −3.62 ± 0.67 log10 CFU/g of tissue
Mean ± SD Δlog10 CFU/g of tissue (day 3-day 7), Epiphyseal bone (MRSA clinical strain [1]): −2.52 ± 1.25 log10 CFU/g of tissue
mean reduction in bacterial burden compared to vehicle controls [2]: 2.8 log10 CFU/g of bone
development of resistance ([2]; after the 3-week treatment period): No development of resistance
Bone cultures found negative (rats) [2]: 2/6
Δlog10 CFU/g of tissue (day 3-day 7), Bone marrow (MRSA clinical strain [3]; [8]): −0.74 log10 CFU/g of tissue
Δlog10 CFU/g of tissue (day 3-day 7), Epiphyseal bone (MRSA clinical strain [3]; [8]): −1.02 log10 CFU/g of tissue
Mean ± SD Δlog10 CFU/g of tissue (day 3-day 7), Bone marrow (MRSA clinical strain [3]; [9]): −2.03 ± 1.11 ^a log10 CFU/g of tissue
Mean ± SD Δlog10 CFU/g of tissue (day 3-day 7), Epiphyseal bone (MRSA clinical strain [3]; [9]): −1.23 ± 0.93 ^b log10 CFU/g of tissue
Mean ± SD Δlog10 CFU/g of tissue (day 3-day 7), Bone marrow (MRSA clinical strain [3]; [10]): −3.18 ± 0.74 ^a log10 CFU/g of tissue
Mean ± SD Δlog10 CFU/g of tissue (day 3-day 7), Epiphyseal bone (MRSA clinical strain [3]; [10]): −1.53 ± 1.53 ^a log10 CFU/g of tissue
Mean ± SD Δlog10 CFU/g of tissue (day 3-day 7), Bone marrow (MRSA clinical strain [3]; [11]): −3.45 ± 1.53 ^a log10 CFU/g of tissue
Mean ± SD Δlog10 CFU/g of tissue (day 3-day 7), Epiphyseal bone (MRSA clinical strain [3]; [11]): −2.17 ± 0.72 ^a log10 CFU/g of tissue
bacterial titers in BM and bone, result in words (MRSA clinical strain [3]; 12.5 mg/kg): significant reduction in bacterial titers
Mean ± SD Δlog10 CFU/g of tissue (day 3-day 7), Bone marrow (MRSA clinical strain [3]; [12]): −3.42 ± 0.96 ^a log10 CFU/g of tissue
Mean ± SD Δlog10 CFU/g of tissue (day 3-day 7), Epiphyseal bone (MRSA clinical strain [3]; [12]): −1.76 ± 0.74 ^a log10 CFU/g of tissue
bacterial counts in BM and bone, result in words (MRSA clinical strain [3]; lower doses 6.25, 1.6, 0.4 and 0.1 mg/kg IV BID, down to the 0.4 mg/kg dose): significant reduction in bacterial counts

Cc1c(CN(C)C(=O)/C=C/c2cnc3c(c2)CCC(=O)N3)oc2ccccc12 [Compound B, (E)-N-methyl-N-((3-methylbenzofuran-2-yl)methyl)-3-(7-oxo-5,6,7,8-tetrahydro-1,8-naphthyridin-3-yl)acrylamide]
MIC (MRSA clinical strain [4]): 4 ng/mL (≈ 0.0107 µM)
EC50 [5]: 1410 nM
relaxation of 1 μM noradrenaline pre-contracted preparations ([5]; at 10 μM): −69±9%
relaxant effects compared to vehicle control group (DMSO) ([5]; at 3 and 10 μM): concentration-dependently relaxed
relaxant effects compared to vehicle control group (DMSO) ([5]; from 0.03 to 1 μM): no relaxant effects
development of resistance (MRSA clinical strain [3]; after the 4-day treatment period): No development of resistance
IC50 (human PDE3A): 600 nM
Kp [6]: 0.06 to 0.27
IC50 (human PDE3B): 703 nM
MIC (MRSA clinical strain [7]; Example 4 isolate): 4 ng/mL (≈ 0.0107 µM)

O=C1CCc2cc(OCCCCc3nnnn3C3CCCCC3)ccc2N1 [cilostazol, reference compound]
EC50 [5]: 832 nM
relaxation of 1 μM noradrenaline pre-contracted preparations ([5]; at 100 μM): −70±7%
relaxant effects compared to vehicle control group (DMSO) ([5]; at 10 and 100 μM): concentration-dependently relaxed
relaxant effects compared to vehicle control group (DMSO) ([5]; from 0.001 to 1 μM): no relaxant effects
IC50 (human PDE3A): 416 nM
IC50 (human PDE3B): 912 nM

C[C@@H]1O[C@@H]1P(=O)(O)O [fosfomycin]
mean reduction in bacterial burden compared to vehicle controls [2]: 3.3 log10 CFU/g of bone
Bone cultures found negative (rats) [2]: 2/6

CN[C@H](CC(C)C)C(=O)N[C@H]1C(=O)N[C@@H](CC(N)=O)C(=O)N[C@H]2C(=O)N[C@H]3C(=O)N[C@H](C(=O)N[C@H](C(=O)O)c4cc(O)cc(O)c4-c4cc3ccc4O)[C@H](O)c3ccc(c(Cl)c3)Oc3cc2cc(c3O[C@@H]2O[C@H](CO)[C@@H](O)[C@H](O)[C@H]2O[C@H]2C[C@](C)(N)[C@H](O)[C@H](C)O2)Oc2ccc(cc2Cl)[C@H]1O [vancomycin, reference compound]
bacterial counts in BM and bone, result in words (MRSA clinical strain [1]): No significant difference
Mean ± SD Δlog10 CFU/g of tissue (day 3-day 7), Bone marrow (MRSA clinical strain [1]): −1.05 ± 1.30 log10 CFU/g of tissue
Mean ± SD Δlog10 CFU/g of tissue (day 3-day 7), Epiphyseal bone (MRSA clinical strain [1]): −0.49 ± 0.65 log10 CFU/g of tissue
mean reduction in bacterial burden compared to vehicle controls [2]: no statistically significant reduction
Bone cultures found negative (rats) [2]: 0/6
MIC (MRSA clinical strain [7]): 1000 ng/mL (≈ 0.69 µM)
